Results reported in patent publication US9290528B1, “Light-activated compounds” (University of Kentucky Research Foundation, priority 2013, dated 2016).
pIC50: −log10 of the molar value. Values joined by “and” are separate entries in the source; they are usually repeats but may differ in a detail not shown here. Equal entries are not always repeated. Where two headings read alike, the source gives them in different places.

Experiments:
pUC19 plasmid [1] = assay: Glutathione assay: pUC19 crosslinking with increasing GSH; type: biochemical; conditions: 30 μM compound, 0.01-40 mM GSH; 4 light-activated
Procedure: The concentrations of GSH were 0.01, 0.1, 1, 10, 40 mM, giving a molar ratio between the compounds and glutathione of a) 1:0.3, b) 1:3.3, c) 1:33, d) 1:333, e) 1:1333. […] Control reactions with pUC19 in the presence and absence of GSH were carried out for 12 hrs in the dark with 25 μg/ml plasmid and 40 mM GSH in 10 mM phosphate buffer, pH 7.5. The plasmid was resolved on a 1% agarose gel as described above.
(§1) The photoactivated DNA crosslinking Ru(bpy)2 species retained its ability to damage DNA, even at higher GSH concentrations.

[2] = system: HL60 promyelocytic leukemia cell line; assay: Cell survival assay, HL60; type: cell-based
Procedure: (§2) The HL60 promyelocytic leukemia cell line was obtained from ATCC and cultured in IMDM media (Invitrogen; Carlsbad, Calif.) supplemented with 10% serum supreme (Lonza; Basel, Switzerland) and penicillin/streptomycin at 37° C. with 5% CO2. The A549 cell line was donated and cultured in DMEM supplemented with glutamax, 10% serum supreme, and penicillin/streptomycin at 37° C. with 5% CO2. Cells were plated in Optimem (Life Technologies; Carlsbad, Calif.) supplemented with 1% serum supreme and penicillin/streptomycin at 30,000 cells per well in Costar 96 well flat bottom clear tissue culture treated plates for HL60 and 1500 cells/well for A549. […] The cells were then incubated for 72 hours followed by the addition of Cell Titer Glo (Promega; Madison, Wis.) to determine viability. Dark controls were run in parallel. The resulting luminescence was measured using the SpectraFluor Plus Plate Reader (Tecan). Data were fit to an equation for a sigmoidal dose response using the equation below, where yi and yf are the initial and final signal intensities.
(§3) Cell cytotoxicity studies were performed in HL60 leukemia cells and A549 lung cancer cells (see FIG. 7 and Table 3). Cells were incubated with compounds for 12 hours in the dark before irradiated with >450 nm light (410 W) for 3 minutes. Dark controls were run in parallel. Cell survival was quantified 72 hours later through the use of an ATP luciferase assay, and confirmed by Trypan Blue staining and manual counting.

pUC19 plasmid [3] = assay: Plasmid-compound gel analysis (Example 2); conditions: visible light 200 W, 1 hour
Procedure: Plasmid-compound gel analysis: Plasmid pUC19 was obtained from Bio-Rad (Hercules, Calif.), transformed into DH5a cells and positive transformants were selected by colony formation on Ampicillin LB-Agar plates. Colonies were grown in LB and plasmid isolated using a Maxi-prep plasmid isolation kit (Qiagen; Velno, Netherlands). Plasmid amounts were quantified by UV/VIS. For dosing studies, 40 μg/ml of plasmid was incubated with compound dosed from 0 to 500 μM in 96 well plates. They were incubated for 30 min prior to light activation for 1 hour using a Dell 1410x 200 W projector fitted with a >450 nm cut-off filter. Dark controls were performed by keeping the DNA:compound mixtures in the dark. The samples were incubated overnight after light activation before gel analysis; the dark samples were also incubated for the same time period. Linear plasmid and relaxed circle plasmid were generated and run side-by-side with compound treated samples. Linear plasmid was generated using the EcoRI restriction enzyme (New England BioLabs; Ipswich, Mass.) following the manufacturers protocol. Single cut, relaxed circle, plasmid was generated using the copper phenanthroline reaction. Reaction was carried out in 10 mM phosphate buffer pH 7.5, with 40 μg/ml plasmid, 1 mM DTT, 1 mM hydrogen peroxide, and 5 μM copper phenanthroline for 30 min at 25° C. The addition of DTT reduced the copper phenanthroline to the +1 charge state, followed by reaction with peroxide created the damage to the DNA. Samples were resolved on a 1% non-EB (ethidium bromide) agarose gel followed by 40 minutes of staining with 0.5 μg/ml EB in Tris-Acetate buffer followed by 40 minutes of destaining in Tris-Acetate before imaging.

[4] = system: HL60 leukemia cells and A549 lung cancer cells; assay: Cell cytotoxicity studies, summary over HL60 and A549; type: cell-based
Procedure: as §2, §3

[5] = Photoejection followed by UV/Vis absorption spectroscopy (Example 2); conditions: >450 nm light
Procedure: Absorption spectra were obtained on an Agilent 8453 Diode Array spectrophotometer (Santa Clara, Calif.). Photoexpulsion experiments were performed using a Dell 200 Watt 1410X projector (for in vitro photoejection experiments) or 410 Watt 955 Model 900 AJH projector (for cell cytotoxicity studies) (Dell Inc.; Round Rock, Tex.) fitted with an Edmund Optics filter (NT43-935) (Barrington, N.J.). UV/Vis experiments were performed in a 1-cm pathlength quartz cuvette located 18 inches from the projector. Kinetics were fit using the equation for a single exponential with the Prism software package.

A549 cells [6] = assay: Glutathione assay in A549 cells (cytoprotection); type: cell-based; conditions: co-dosed with increasing GSH
Procedure: A549 cells were plated in Optimem supplemented with 1% serum supreme and penicillin/streptomycin in 96 well plates as described above. […] Cellular viability was determined by measuring ATP concentration with CellTiter Glo (Promega). Data were fit to an equation for sigmoidal dose response shown above using the Prism software package.

[7] = Interaction of prodrug compounds with GSH by UV/Vis spectroscopy; type: physicochemical; conditions: period of days
Text: as §1

A549 tumor spheroids = assay: A549 tumor spheroid cytotoxicity; type: cell-based
Procedure: A549 cells were seeded at 2,500 cells/well in 1.5% agarose coated 96-well plates. After 7 days the spheroids were dosed with compounds and incubated for 12 hrs. […] Cellular viability was determined 72 hours after light activation for the irradiated samples and at the same time point for the dark samples by measuring ATP concentration with CellTiter Glo (Promega). Data were fit to an equation for sigmoidal dose response shown above using the Prism software package.
3D tumor spheroids were used to test the compounds. Spheroids provide a system that approximates the complexity of in vivo tumors. These spheroids mimic the pathophysiology of tumors, including hypoxic/necrotic regions, changes in cell shape, high proportions of quiescent cells, alterations in gene expression profiles, and diminished permeability to drugs. […] To characterize the light-activated ruthenium compounds under more challenging and biologically relevant conditions, efficacy was assessed in a 3D tumor model by forming tumor spheroids with A549 cells.
Spheroids of about 600 μm in diameter were dosed with compounds and then either kept in the dark or irradiated with >450 nm light for 3 minutes.

A549 lung cancer cells = assay: Cell survival assay, A549 monolayer; type: cell-based
Procedure: as §2, §3

[8] = Light and dark cytotoxicity of exemplary compounds (Table 6); type: cell-based; conditions: for pIC50: cell line not stated; for Phototoxicity Index: dark IC50/light IC50
Text: This Example describes additional specific embodiments the presently-disclosed subject matter. […] The methods for making and characterizing the compounds are based on the methodologies described in the previous examples.

Log P = type: physicochemical
HL60 cells [9] = assay: Western blot of PARP and caspase 3 cleavage; type: cell-based, human; conditions: for 55 kDa PARP fragment (marker for necrosis): protected from light and irradiated
Procedure: Given the different cellular localization properties and time profiles for cell death induced by 9 and 10, the mechanism of cell death was investigated. Indicators of apoptotic cell death (activation of PARP and caspase 3 through proteolysis) were determined in HL60 cells treated with either 9 or 10 (FIGS. 15A and 15B).
The generation of an alternate 55 kDa PARP fragment was determined by immunoblot as a marker for necrosis with 10% (v/v) ethanol used as a control that induces necrosis.

HL60 cells [10] = system: HL60 cells
HL60 cells [11] = assay: Cell viability as a function of time; type: cell-based, human; conditions: irradiated; for cell viability: 2 hours
A549 cells [12] = assay: Uptake and subcellular localization by Apoptome microscopy; type: cell-based, human
Procedure: The emission of 9 and 10 was measured in A549 cells using an Apoptome microscope. The relative rates of uptake of each of the complexes were analyzed as a function of time, and both 9 and 10 were visible inside cells as early as 2 hours after compound addition, consistent with the flow data and the ICP-OES results. Images were taken at 2, 8, 18 and 24 hours, and intracellular levels of both complexes appeared to plateau around 8 hours.
Differences in the intracellular localization of 9 and 10 were evaluated by determining colocalization of luminescence of the compound and fluorescent markers of organelles in A549 cells. Overlap in signals between the compounds, cellular nucleus, mitochondria and lysosome was measured over a 24 hour period.

HL60 cells [13] = assay: Mitochondrial membrane potential (TMRE); type: cell-based, human; conditions: for effect on mitochondrial potential: dark and irradiated
Text: FIGS. 14A to 14D includes charts showing mitochondrial potential and cell viability of HL60 cells as a function of time for (FIG. 14A) 9, dark, (FIG. 14B) 9, irradiated; (FIG. 14C) 10, dark; (FIG. 14D) 10, irradiated. TMRE was used to quantify membrane potential; values are relative to a no-compound control value of 100.
TMRE is a cationic dye that accumulates in active motochondria as a result of the negative membrane potential (Δψm).

HL60 cells [14] = system: HL60 cells; remark: listed apart in the source
HL60 cells [15] = assay: Genomic DNA laddering by gel electrophoresis; type: cell-based, human; conditions: dark / not irradiated
Text: To further analyze the mechanisms of cell death induced by 9 and 10, the degradation pattern of genomic DNA was investigated. DNA laddering was observed as a result of DNA fragmentation stemming from the execution phase of apoptosis. In contrast, necrotic cell death lacked this characteristic laddering effect, allowing differentiation between these two mechanisms. […] This laddering was absent in the cells treated with ethanol and compounds 9 and 10 in the dark. […] In contrast, given the cytotoxicity of 9 in the dark and the presence of the 55 kDa PARP fragment, it appears that necrotic cell death is one pathway for […]. For compound 10 the absence of DNA laddering may be a result of the lack of cytotoxicity of the negatively charged compound.

pUC19 plasmid DNA = pUC19 plasmid DNA damage by gel electrophoresis (Example 4); type: biochemical; conditions: for DNA damage when exposed to light: 40 J/cm^2 >400 nm light
Procedure: Their DNA damaging properties were assessed with pUC19 plasmid DNA using gel electrophoresis. […] Samples were then incubated for 24 hours at room temperature protected from light. Controls were prepared to simulate single and double strand DNA breaks, and the DNA samples resolved on agarose gels. Samples were resolved using 1% agarose gels prepared in tris-acetate (TA) buffer. Each lane was loaded with 0.3 μg of pUC19 and the samples run for 90 minutes at […]. The gels were stained with 500 ng/mL ethidium bromide in TA buffer at room temperature for 40 minutes. […] In contrast, 10 is a more hydrophilic molecule, and the negatively charged sulfonate functional groups were anticipated to cause electrostatic repulsions between the complex and the negatively charged backbone of the DNA. DNA precipitation or smearing was not observed with up to 500 μM of […] (FIG. 12B).

15 mer oligonucleotide A = type: physicochemical
Text: (§4) The G-quadruplex sequence is [NT].

[16] = system: G-quadruplex [AGGG(TTAGGG)3]; type: physicochemical
Text: as §4

CT DNA = assay: DNA binding affinity (Kb) with CT DNA; design: species or system calf; conditions: racemic mixtures
Text: Intercalation of both complexes was consistent with the reduced mobility of supercoiled plasmid DNA in agarose gels, and the modulation of the absorption spectra in the presence of DNA, characterized by hypochromism of both the π-π* of the dppz ligand and the MLCT transitions, with maximal effect at a ratio of 2:1 DNA base pairs to metal center. Thus, the strained complex retained DNA-sensing capabilities of other Ru^II “light-switch” molecules and photochemical reactivity.

calf thymus (CT) DNA = type: physicochemical; conditions: bovine
[17] = Photoejection half-life of 8 in solvents; type: physicochemical; conditions: D2O vs H2O
Text: The photochemical behaviour of 8 paralleled the photophysical characteristics of unstrained Ru^II complexes containing the dppz ligand.

## Cc1cccc(-c2cccc(C)n2)n1.F[P-](F)(F)(F)(F)F.F[P-](F)(F)(F)(F)F.[Ru+2].c1ccc(-c2ccccn2)nc1.c1ccc(-c2ccccn2)nc1 [Compound 4, Ru(bpy)2-6,6′dmbpy]
pUC19 plasmid [1]
  plasmid DNA crosslinking in presence of increasing GSH: greater DNA binding than cisplatin
[2]; 3 min >450 nm light, 72 hours, read-out: Light IC50 HL60
  pIC50: 5.80
[2]; dark, read-out: Dark IC50 HL60
  pIC50: < 3.52
[2]; ratio of dark and light IC50
  Phototoxicity Index, PI HL60: >188
pUC19 plasmid [3]
  type of DNA damage upon visible light: DNA photobinding
[4]; >450 nm light 3 minutes vs dark
  activity light versus dark: light-triggered toxicity
[4]; after irradiation
  IC50 values after irradiation: single μM IC50 values
[4]; dark
  dark toxicity (none observed up to this concentration): > 300 µM
[5]
  reaction kinetics of 4 relative to 5: 30 fold
A549 cells [6]
  effect of GSH on cytotoxicity: not
[7]
  interaction with GSH: did not interact with GSH
A549 tumor spheroids; 3 min >450 nm light, 72 hours, read-out: Light IC50 A549 spheroid
  pIC50: 4.68 and 4.67
A549 tumor spheroids; dark, read-out: Dark IC50 A549 spheroid
  pIC50: < 3.52
A549 tumor spheroids; ratio of spheroid and monolayer culture IC50
  MCR Index: 19.4
A549 lung cancer cells; 3 min >450 nm light, 72 hours, read-out: Light IC50 A549
  pIC50: 5.96
A549 lung cancer cells; dark, read-out: Dark IC50 A549
  pIC50: 3.82
A549 lung cancer cells; ratio of dark and light IC50
  Phototoxicity Index, PI A549: 136
[8]; read-out: Dark IC50
  pIC50: 3.52
[8]; read-out: Light IC50
  pIC50: 5.82
[8]
  Phototoxicity Index: 200

## O=S(=O)([O-])c1ccc(-c2ccnc3c2ccc2c(-c4ccc(S(=O)(=O)[O-])cc4)ccnc23)cc1.O=S(=O)([O-])c1ccc(-c2ccnc3c2ccc2c(-c4ccc(S(=O)(=O)[O-])cc4)ccnc23)cc1.O=S(=O)([O-])c1ccc(-c2ccnc3c2ccc2c(-c4ccc(S(=O)(=O)[O-])cc4)ccnc23)cc1.[Ru+2] [Compound 10, Ru(bathophenanthorlinedisulfonate)3]
Log P
  Log P: −2.2 ± 0.12
HL60 cells [9]; absence of light
  PARP and caspase 3 activation: did not display PARP or caspase 3 cleavage
HL60 cells [9]; irradiated
  PARP and caspase 3 activation: induced PARP as early as 2 hours
HL60 cells [9]
  55 kDa PARP fragment (marker for necrosis): lower level of the 55 kDa PARP fragment
HL60 cells [10]
  increase of average emission of cells between 2 and 24 hours: 4 fold
HL60 cells [11]
  cell viability: 70±12%
HL60 cells [11]; 24 hours
  viable cells remaining: 70% and 59±4%
HL60 cells [11]; 48 hours
  viable cells remaining: 55%
A549 cells [12]
  time at which intracellular levels plateau: around 8 hours
HL60 cells [13]
  effect on mitochondrial potential: did not significantly reduce the mitochondrial potential
HL60 cells [14]
  amount within the cells after irradiation: 1.6%
HL60 cells [15]
  genomic DNA laddering: absent
pUC19 plasmid DNA
  DNA damage when exposed to light: induced single strand DNA breaks

## Ru(bathophenanthroline)3 [Compound 9]
Log P
  Log P: 1.8 ± 0.02
HL60 cells [9]; absence of light
  PARP and caspase 3 activation: after 18 and 24 hours and to a lesser degree
HL60 cells [9]; irradiated
  PARP and caspase 3 activation: induced the proteolytic activation of both PARP and caspase 3 within 2 hours of irradiation
HL60 cells [9]
  55 kDa PARP fragment (marker for necrosis): produced this fragment at significant levels
HL60 cells [11]
  time to cell death after irradiation: ≤ 2 h
  cell viability: about 0%
A549 cells [12]
  time at which intracellular levels plateau: around 8 hours
HL60 cells [13]
  effect on mitochondrial potential: rapid and complete depolarization of mitochondria
HL60 cells [13]; dark, 2 hours post treatment
  mitochondrial function: completely impaired
HL60 cells [13]; within 2 hours of irradiation
  mitochondrial function: about 0%
HL60 cells [15]
  genomic DNA laddering: absent
pUC19 plasmid DNA
  DNA damage when exposed to light: induced single strand DNA breaks
pUC19 plasmid DNA; light and dark
  concentrations at which precipitation of the complex with the DNA was observed: above 31.3 μM

## Ru(bpy)2dmdppz [Compound 8]
15 mer oligonucleotide A
  Half-life: 31 ± 0.5 min
[16]
  Half-life: 13.5 min
[16]; bound to G-quadruplex
  increase of photoejection rate compared to CT DNA: 3 fold
CT DNA
  Kb: 3e+07 M⁻¹
Calf thymus (CT) DNA
  Half-life: 41 ± 2 min
  t1/2 values: 31 to 41 min
[17]
  isotope effect of ejection: > 3.4
[8]; read-out: Dark IC50
  pIC50: 4.19
[8]; read-out: Light IC50
  pIC50: 4.85
[8]
  Phototoxicity Index: 4.6
